Measurements: patent US20160367497A1, “METHODS AND COMPOSITIONS FOR TREATING NEUROPATHIES” (Washington University, priority 2007, published 2016)

Assays:
AMPK [1] = test: AMPK phosphorylation in Neuro2a cells (phospho-specific western blot); format: cell-based; settings: for effect on resveratrol-mediated activation of AMPK (AMPK and ACC phosphorylation): resveratrol 10 μM, 2 h, sirtinol 10 μM, splitomycin 10 μM, nicotinamide 10 mM, STO 609 2.5 μM
Experimental: FIG. 10A-D illustrates resveratrol activation of AMP kinase in Neuro2a cells. Neuro2a cells were switched to serum-starvation medium (medium containing 0.2% FCS) and treated with DMSO (vehicle control), resveratrol (10 μM) or 5-aminoimidazole-4-carboxamide-1-β-D-ribofuranoside (AICAR) (1 mM). […] Very low levels of phosphorylated AMPK and ACC were detected in DMSO treated control cells at all time points tested. (C) Densitometric analysis of changes in phosphorylated AMPK and (D) phosphorylated ACC under different conditions is shown.
(§1) Cell culture and Reagents. Neuro2 cells obtained from ATCC were grown in MEM with 1.5 g/L sodium bicarbonate, 0.1 mM nonessential amino acids, 0.1 mM sodium pyruvate, 2 mM L-glutamine with 10% FCS. For differentiation, cells were switched to serum-starvation medium (containing 0.2% FCS). For neurite outgrowth measurements, experiments were done in quadruplicate and 100 neurites per well were randomly measured using the Metamorph software. Dorsal root ganglia sensory and cortical neurons were established from E13.5 mouse embryos, maintained in neurobasal medium supplemented with B27 (and NGF for DRG neurons) and infected with lentiviruses as described (Araki et al., 2004, Science 305:1010-1013; Hawley et al., 2005, Cell Metab 2:21-23). Resveratrol was a gift from Sirtris Pharmaceuticals (Cambridge Mass.) and AICAR was obtained from Toronto Research (North York, Canada). Splitomycin and Compound C were purchased from Biomol (Plymouth Meeting, Pa.) and Calbiochem (San Diego, Calif.). Sirtinol and nicotinamide were purchased from Sigma (Saint Louis, Mo.)
(§2) Plasmids and viruses. The dominant negative (dnAMPK) and constitutively active (caAMPK) plasmids were gifts from Russell Jones (University of Pennsylvania, Philadelphia Pa.), and pCXN-Cre was a gift of Inder Verma (Salk Institute, San Diego, Calif.). All constructs were subcloned into the lentiviral shuttle vector FCIV and verified by nucleotide sequence analysis. Viruses were prepared as previously described (Araki et al., 2004, Science 305:1010-1013). Protein and mRNA analysis. Immunoprecipitations and western blot analysis were performed by standard methods using antibodies directed against total AMPK, phosphorylated AMPK, total ACC or phosphorylated ACC that were obtained from Cell Signaling Technology (Beverley, Mass.). The phospho-AMPK antibody detects endogenous AMPK α1 and α2 when phosphorylated at threonine 172. The LKB1 antibody was purchased from Upstate (Lake Placid, N.Y.). Quantitative RT-PCR analysis was performed using Sybr-Green methodology on a model 7700 instrument (Applied Biosystems) as previously described (Araki et al., 2004, Science 305:1010-1013). Primer sequences were those used in previous studies (Motoshima, et al., 2006, J Physiol 574:63-71).
To explore the role of polyphenols, in particular, of resveratrol, we tested whether resveratrol altered the activity of AMPK in neuronal cells. Neuro2a neuroblastoma cells were treated with resveratrol (10 μM) and AMPK activation was examined using phospho-AMPK specific antibodies. […] To confirm that AMPK activation by resveratrol results in typical AMPK-mediated downstream responses, we monitored phosphorylation of ACC (acetyl Co-A carboxylase), a primary target of activated AMPK. […] To examine a potential mechanism of resveratrol-mediated AMPK activation, we measured cellular ATP levels as a decreased ATP:AMP ratio increases the phosphorylation of AMPK. ATP levels were monitored using a luciferase-based assay in neuro2A cells treated with resveratrol or Oligomycin, an inhibitor of mitochondrial oxidative phosphorylation and therefore ATP production. While the ATP concentration dropped from 5.874 μM in DMSO-treated cells (control) to 0.976 μM in Oligomycin treated cells within 2 hr, the ATP concentration in resveratrol-treated Neuro2a cells was not altered from control either at 2 hr (6.33 μM) or 24 hr (6.42 μM).

AMPK [2] = test: AMPK and ACC phosphorylation in DRG sensory neurons; format: cell-based, mouse; settings: for effect on resveratrol-induced AMPK phosphorylation: DRG neurons, resveratrol 10 μM, 2 h
From the text: (A) Embryonic DRG neurons from Lkb1 flox/flox mice were infected with lentivirus expressing Cre recombinase (FCIV-Cre) or GFP only (FUGW control). Lentiviral infection was monitored by GFP fluorescence (A). […] Lkb1 flox/flox DRG neurons were infected with FUGW or FCIV-Cre and treated as indicated. AMPK or ACC was immunoprecipitated from neuronal lysates and western blots were probed with the respective phospho-specific antibodies. […] No inhibition of AMPK or ACC phosphorylation was observed by treatment with SIRT1 or CaMKKβ inhibitors. Lysate from AICAR treated DRG neurons was included as a positive control. (E, F) Embryonic DRG neurons were cultured from wild type and SIRT1-deficient littermates derived from SIRT1 heterozygous matings. […] Levels of total AMPK and ACC are shown in the bottom panels of C, D, E and F. Densitometric analysis of changes in levels of phospho AMPK (G) and phospho ACC (H) in SIRT1+/+ and SIRT1−/− DRG neurons in presence and absence of resveratrol is shown. Note: Resv, resveratrol.
as §1, §2
Resveratrol activation of AMPK in Neuro2a cells along with the crucial role of AMPK in promoting neurite outgrowth in these cells encouraged us to examine this pathway in primary neurons. […]

Structure (SMILES)	effect on resveratrol-mediated activation of AMPK (AMPK and ACC phosphorylation) (AMPK [1])	effect on resveratrol-induced AMPK phosphorylation (AMPK [2])	AMPK phosphorylation (AMPK [1]; resveratrol 10 μM or AICAR 1 mM, 2 h up to 72 h)	phosphorylation of AMPK and ACC (AMPK [2]; E13.5 DRG sensory neurons, 10 μM)
NC(=O)c1cccnc1 [Nam, nicotinamide]	None of the SIRT1 inhibitors attenuated	none of the SIRT inhibitors		
CC(NC(=O)c1ccccc1/N=C/c1c(O)ccc2ccccc12)c1ccccc1 (stereo not shown) [Sirtinol]	None of the SIRT1 inhibitors attenuated	none of the SIRT inhibitors		
O=C(O)c1ccc2c3c1cccc3c(=O)n1c3ccccc3nc21 [STO 609]	had no effect	had no effect		
O=C1CCc2c(ccc3ccccc23)O1 [splitomycin]	None of the SIRT1 inhibitors attenuated	none of the SIRT inhibitors		
Oc1ccc(C=Cc2cc(O)cc(O)c2)cc1 [resveratrol]			robust increase in AMPK Thr172 phosphorylation	stimulated phosphorylation of AMPK and ACC
